Tested on: PFI-020
Assay: FLIPR cell-based assay for agonist activation of PFI-020
Set-up: species or system human
Conditions: 10 μM; PFI-020-transfected 293 cells (HEK 293 expressing mouse Gα15); Fluo3 FLIPR
Protocol: Fluorescence Imaging Plate Reader (FLIPR®) technology was employed as a means to detect activation of PFI-020 by agonists in a cell-based assay.
5×10^6 Human Embryonic Kidney (HEK) 293 cells expressing the mouse Gα15 gene (from here on called '293 cells′), were transiently transfected with 7.5 μg of PFI-020 (contained within the pcDNA4HIS-max-TOPO (Invitrogen) plasmid) vector, or vector alone, using Lipofectamine Plus® reagent (Gibco BRL) as per the manufacturer's protocol. The plasmid pcDNA4HIS-max-TOPO was used as it contains elements that up-regulate the level of gene transcription over standard pcDNA3.1 vectors. 24 hrs post-transfection, the cells were detached from the flask using Trypsin/EDTA solution (LTI) and seeded into a black sided, poly-D-lysine-treated, 96-well plate (Becton Dickinson) at 5×10^4 cells/well density. […] The FLIPR® processing involved reading the fluorescence for all samples for 2 minutes; during this time the fluorescence baseline was determined for the first 10 seconds. The desired amount of compound was then automatically transferred to the wells and the fluorescence was continuously monitored for the remainder of the time. […]
FIGS. 3, 4, 5 and 6 depict the action of various purinoceptor compounds at a concentration of 10 μM on PFI-020-transfected 293 cells, showing fluorescence intensity versus time (in seconds). […]

| SMILES | activation of PFI-020 (fluorescence intensity versus time) |
| --- | --- |
| O=c1ccn([C@@H]2O[C@H](COP(=O)(O)OP(=O)(O)OP(=O)(O)O)[C@@H](O)[C@H]2O)c(=O)[nH]1 [UTP, Uridine triphosphate] | activated |
| Nc1nc(Cl)nc2c1ncn2[C@@H]1O[C@H](COP(=O)([O-])OP(=O)([O-])OP(=O)([O-])[O-])[C@@H](O)[C@H]1O.[Na+].[Na+].[Na+].[Na+] [2-chloro-ATP, 2-chloroadenosine triphosphate tetrasodium] | activated |
